Experimental data taken from patent US6350760B1, “Substituted piperidines as melanocortin-4 receptor agonists” (Merck & Co., Inc., priority 1999, dated 2002).
Marks after values point to notes of the source that are not given here. One block for each compound: values may come before it.

Experiments:
[1] = target: T1, human MC-5R (Homo sapiens, UniProt P33032); test: Membrane binding assay, competition with 125I-NDP-alpha-MSH; conditions: human receptor; average of at least 3 determinations
T1 construct: expressed in transfected cells; host or cells: CHO- or L-cells or other eukaryotic cells
Protocol: (§1) A. Binding Assay. The membrane binding assay was used to identify competitive inhibitors of ^125I-NDP-alpha-MSH binding to cloned human MCRs expressed in L- or CHO-cells.
(§2) Cell lines expressing melanocortin receptors were grown in T-180 flasks containing selective medium of the composition: 1 L Dulbecco's modified Eagles Medium (DMEM) with 4.5 g L-glucose, 25 mM Hepes, without sodium pyruvate, (Gibco/BRl); 100 ml 10% heat-inactivated fetal bovine serum (Sigma); 10 ml 10,000 unit/ml penicillin & 10,000 ug/ml streptomycin (Gibco/BRl); 10 ml 200 mM L-glutamine (Gibco/BRl); 1 mg/ml Geneticin (G418) (Gibco/BRl). The cells were grown at 37° C. with CO2 and humidity control until the desired cell density and cell number was obtained.
(§3) The medium was poured off and 10 mls/monolayer of enzyme-free dissociation media (Specialty Media Inc.) was added. The cells were incubated at 37° C. for 10 minutes or until cells sloughed off when flask was banged against hand.
(§4) The cells were harvested into 200 ml centrifuge tubes and spun at 1000 rpm, 4° C., for 10 min. […]
(§5) IC50's were determined in a competition binding assay with ^125I-NDP-alpha-MSH as ligand using crude membranes prepared from cell lines expressing the appropriate MC-R. Functional EC50's were determined by application of compound to intact cells followed by direct measurement of cAMP as described in the Biological Assays section above.

[2] = target: T2, human MC-1R (Homo sapiens, UniProt Q01726); test: Functional cell based cAMP assay; conditions: cAMP relative to alpha-MSH at 10 μM defined as 100% agonist
T2 construct: expressed in transfected cells; host or cells: CHO- or L-cells or other eukaryotic cells
Excerpt: (§6) B. Functional assay. Functional cell based assays were developed to discriminate melanocortin receptor agonists from antagonists.
(§7) Cells (for example, CHO- or L-cells or other eukaryotic cells) expressing a human melanocortin receptor (see e.g. Yang-YK; Ollmann-MM; Wilson-BD; Dickinson-C; Yamada-T; Barsh-GS; Gantz-I; Mol-Endocrinol. 1997 Mar; 11(3): 274-80) were dissociated from tissue culture flasks by rinsing with Ca and Mg free phosphate buffered saline (14190-136, Life Technologies, Gaithersburg, Md.) and detached following 5 minutes incubation at 37° C. with enzyme free dissociation buffer (S-014-B, Specialty Media, Lavellette, N.J.). Cells were collected by centrifugation and resuspended in Earle's Balanced Salt Solution (14015-069, Life Technologies, Gaithersburg, Md.) with additions of 10 mM HEPES pH 7.5, 5 mM MgCl2, 1 mM glutamine and 1 mg/ml bovine serum albumin. Cells were counted and diluted to 1 to 5×10^6/ml. The phosphodiesterase inhibitor 3-isobutyl-1-methylxanthine was added to cells to 0.6 mM.
(§8) Test compounds were diluted in dimethylsulfoxide (DMSO) (10^−5 to 10^−10 M) and 0.1 volume of compound solution was added to 0.9 volumes of cell suspension; the final DMSO concentration was 1%. After room temperature incubation for 45 min., cells were lysed by incubation at 100° C. for 5 min. to release accumulated cAMP.
(§9) cAMP was measured in an aliquot of the cell lysate with the Amersham (Arlington Heights, Ill.) cAMP detection assay (RPA556). The amount of cAMP production which resulted from an unknown compound was compared to that amount of cAMP produced in response to alpha-MSH at 10 μM which was defined as a 100% agonist.
as §5

[3] = target: T3, human MC-3R (Homo sapiens, UniProt P41968); test: Functional cell based cAMP assay; conditions: cAMP relative to alpha-MSH at 10 μM defined as 100% agonist
T3 construct: expressed in transfected cells; host or cells: CHO- or L-cells or other eukaryotic cells
Excerpt: as §6, §7, §8, §9, §5

[4] = target: T1, human MC-5R; test: Functional cell based cAMP assay
Excerpt: as §6, §7, §8, §9, §5

[5] = system: conscious rat model of reflexogenic erections; test: Rat ex copula assay, conscious rat model of reflexogenic erections; format: in vivo; conditions: for penile erections, % Increase from Vehicle or Baseline: rats; for efficacy of reference drugs in conscious rat model of reflexogenic erections: positive reference controls
Protocol: Sexually mature male Caesarian Derived Sprague Dawley (CD) rats (over 60 days old) are used with the suspensory ligament surgically removed to prevent retraction of the penis back into the penile sheath during the ex copula evaluations. Animals receive food and water ad lib and are kept on a normal light/dark cycle. Studies are conducted during the light cycle.
1) Conditioning to Supine Restraint for Ex Copula Reflex Tests. This conditioning takes ˜4 days. Day 1, the animals are placed in a darkened restrainer and left for 15-30 minutes. Day 2, the animals are restrained in a supine position in the restrainer for 15-30 minutes. Day 3, the animals are restrained in the supine position with the penile sheath retracted for 15-30 minutes. Day 4, the animals are restrained in the supine position with the penile sheath retracted until penile responses are observed. Some animals require additional days of conditioning before they are completely acclimated to the procedures; non-responders are removed from further evaluation. After any handling or evaluation animals are given a treat to ensure positive reinforcement.
2) Ex Copula Reflex Tests. Rats are gently restrained in a supine position with their anterior torso placed inside a cylinder of adequate size to allow for normal head and paw grooming. For a 400-500 gram rat, the diameter of the cylinder is approximately 8 cm. The lower torso and hind limbs are restrained with a non-adhesive material (vetrap). An additional piece of vetrap with a hole in it, through which the glans penis will be passed, is fastened over the animal to maintain the preputial sheath in a retracted position. Penile responses will be observed, typically termed ex copula genital reflex tests. Typically, a series of penile erections will occur spontaneously within a few minutes after sheath retraction. The types of normal reflexogenic erectile responses include elongation, engorgement, cup and flip. An elongation is classified as an extension of the penile body. Engorgement is a dilation of the glans penis. A cup is defined as an intense erection where the distal margin of the glans penis momentarily flares open to form a cup. A flip is a dorsiflexion of the penile body.
Baseline and or vehicle evaluations are conducted to determine how and if an animal will respond. Some animals have a long duration until the first response while others are non-responders altogether. During this baseline evaluation latency to first response, number and type of responses are recorded. The testing time frame is 15 minutes after the first response.
[…] All evaluations are videotaped and scored later. Data are collected and analyzed using paired 2 tailed t-tests to compared baseline and/or vehicle evaluations to drug treated evaluations for individual animals. Groups of a minimum of 4 animals are utilized to reduce variability.
Positive reference controls are included in each study to assure the validity of the study. Animals can be dosed by a number of routes of administration depending on the nature of the study to be performed. The routes of administration includes intravenous (IV), intraperitoneal (IP), subcutaneous (SC) and intracerebral ventricular (ICV).
In this non-random crossover model, rats were placed in the supine position with the preputial sheath retracted to initiate a reflex arc. The number of erections was counted in the 15 minute period following the first erection.

[6] = target: T4, human MC-2R (Homo sapiens, UniProt Q01718); test: Functional cell based cAMP assay; set-up: expressed in transfected cells; host or cells: L- or CHO-cells; conditions: @ 10 μM; cAMP relative to alpha-MSH defined as 100% agonist
Excerpt: as §6
as §7, with “The phosphodiesterase inhibitor 3-isobutyl-1-methylxanthine was added to cells to 0.6 mM.” left out
cAMP was measured in an aliquot of the cell lysate with the Amersham (Arlington Heights, Ill.) cAMP detection assay (RPA556). […]
as §5

[7] = target: T4, human MC-2R; test: Membrane binding assay, competition with 125I-NDP-alpha-MSH; set-up: expressed in transfected cells; host or cells: L- or CHO-cells (membranes); conditions: human receptor; average of at least 3 determinations
Protocol: as §1, §2, §3, §4, §5

[8] = system: erectile dysfunction; conditions: cited from earlier work; for duration of effect / onset of action: after an oral dose, men; for proportion of men/patients with adequate response: oral, erectile dysfunction patients
[9] = system: animal feeding models (NPY, ob/ob, agouti, fasted); conditions: injected intracerebroventricularly (ICV) in rodents; cited from earlier work
[10] = system: psychogenic erectile dysfunction; conditions: cited from earlier work
[11] = in vivo; cited from earlier work

T1 sequence (P33032 whole entry): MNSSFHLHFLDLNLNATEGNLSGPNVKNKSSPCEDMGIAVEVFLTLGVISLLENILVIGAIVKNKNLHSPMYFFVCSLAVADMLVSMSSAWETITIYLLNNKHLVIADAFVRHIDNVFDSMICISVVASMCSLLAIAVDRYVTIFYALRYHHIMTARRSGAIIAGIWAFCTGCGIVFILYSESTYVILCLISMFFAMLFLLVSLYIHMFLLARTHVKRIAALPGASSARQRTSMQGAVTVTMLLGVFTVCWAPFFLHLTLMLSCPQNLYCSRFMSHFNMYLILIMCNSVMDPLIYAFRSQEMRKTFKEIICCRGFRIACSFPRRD
T4 sequence (Q01718 whole entry): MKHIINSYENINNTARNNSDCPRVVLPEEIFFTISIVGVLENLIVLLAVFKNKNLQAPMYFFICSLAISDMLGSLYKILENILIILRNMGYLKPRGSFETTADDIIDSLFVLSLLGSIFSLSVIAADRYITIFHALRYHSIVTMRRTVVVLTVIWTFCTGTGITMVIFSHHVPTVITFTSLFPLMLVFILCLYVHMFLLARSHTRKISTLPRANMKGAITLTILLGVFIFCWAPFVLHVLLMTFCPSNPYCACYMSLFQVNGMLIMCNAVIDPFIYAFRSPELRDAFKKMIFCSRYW
T3 sequence (P41968 whole entry): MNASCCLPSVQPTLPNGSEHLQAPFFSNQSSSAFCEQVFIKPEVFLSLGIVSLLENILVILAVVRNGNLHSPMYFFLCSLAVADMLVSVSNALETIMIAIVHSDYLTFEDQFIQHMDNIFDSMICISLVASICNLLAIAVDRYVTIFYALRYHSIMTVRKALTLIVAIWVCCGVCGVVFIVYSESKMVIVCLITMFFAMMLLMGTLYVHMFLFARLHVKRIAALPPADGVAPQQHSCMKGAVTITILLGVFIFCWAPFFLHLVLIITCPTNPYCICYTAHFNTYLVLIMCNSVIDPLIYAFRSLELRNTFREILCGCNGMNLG
T2 sequence (Q01726 whole entry): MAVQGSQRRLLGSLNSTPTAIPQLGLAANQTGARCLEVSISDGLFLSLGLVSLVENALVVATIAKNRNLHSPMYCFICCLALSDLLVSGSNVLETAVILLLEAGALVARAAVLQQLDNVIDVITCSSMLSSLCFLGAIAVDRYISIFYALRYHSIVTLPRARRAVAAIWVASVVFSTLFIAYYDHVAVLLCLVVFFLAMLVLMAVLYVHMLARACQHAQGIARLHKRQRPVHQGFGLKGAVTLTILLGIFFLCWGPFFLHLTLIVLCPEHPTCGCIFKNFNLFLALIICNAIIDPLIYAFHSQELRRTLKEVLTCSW

IC50 [1]: 0.23 µM
Functional Activity, agonist efficacy, MC-1R [2]: 84%
Functional Activity, agonist efficacy, MC-3R [3]: 29%
Functional Activity, agonist efficacy, MC-5R ([4]; cAMP relative to alpha-MSH at 10 μM defined as 100% agonist): 58%
EC50 ([4]; human receptor, cAMP, average of at least 3 determinations): 0.53 µM
Functional Activity, agonist efficacy, MC-2R [6]: 0% @ 10 μM
IC50 [7]: > 10 µM
Compound: O=C(N[C@H](Cc1ccc(Cl)cc1)C(=O)N1CCC(Cn2cncn2)(C2CCCCC2)CC1)[C@H]1Cc2ccccc2CN1 [Example 2]
number of erections in conscious rat model of reflexogenic erections ([5]; administered by the intravenous (IV) route or by the oral (PO) route): effective in significantly increasing the number of erections
penile erections, % Increase from Vehicle or Baseline ([5]; 0.3 mg/kg IV, placed supine 60 min after dosing, P = 0.05): 15* %
penile erections, % Increase from Vehicle or Baseline ([5]; 1.0 mg/kg IV, placed supine 0 min after dosing, P = 0.05): 31%
penile erections, % Increase from Vehicle or Baseline ([5]; 1.0 mg/kg IV, placed supine 60 min after dosing, P = 0.05): 35%
penile erections, % Increase from Vehicle or Baseline ([5]; 5.0 mg/kg IV, placed supine 60 min after dosing, P = 0.01): 50** %
penile erections, % Increase from Vehicle or Baseline ([5]; 10 mg/kg IV, placed supine 0 min after dosing, P = 0.01): 45%
penile erections, % Increase from Vehicle or Baseline ([5]; 10 mg/kg IV, placed supine 60 min after dosing, P = 0.01): 38%
penile erections, % Increase from Vehicle or Baseline ([5]; 20 mg/kg PO, placed supine 60 min after dosing, P = 0.01): 24** %
penile erections, % Increase from Vehicle or Baseline ([5]; 20 μG ICV, placed supine 0 min after dosing, P = 0.05): 41* %

Compound: CN1CCc2cccc3c2[C@H]1Cc1ccc(O)c(O)c1-3 [apomorphine]
efficacy of reference drugs in conscious rat model of reflexogenic erections [5]: effective

Compound: Cc1ccc(N(CC2=NCCN2)c2cccc(O)c2)cc1 [phentolamine]
duration of effect [8]: 2 h
onset of action [8]: 5 to 30 min
proportion of men/patients with adequate response [8]: 35-40%

Compound: CCCc1nn(C)c2c(=O)[nH]c(-c3cc(S(=O)(=O)N4CCN(C)CC4)ccc3OCC)nc12 [sildenafil]
efficacy of reference drugs in conscious rat model of reflexogenic erections [5]: effective
duration of effect [8]: about 4 hours
onset of action [8]: 30 to 60 min
adverse effects associated with clinical use ([8]; clinical use): headache, flushing, dyspepsia, and “abnormal vision
proportion of men/patients with adequate response [8]: about 70%

Compound: Ac-Nle-c[Asp-His-DPhe-Arg-Trp-Lys]-NH2 [MT-II]
effect on food intake [9]: reduces food intake
adverse reactions observed ([10]; in vivo): nausea, flushing, loss of appetite, stretching, and yawning
response rate ([10]; injected intramuscularly or subcutaneously to males with psychogenic erectile dysfunction): 75%
duration of action ([10]; men): approximately 2.5 hours
time to onset of erection ([10]; men): 10 to 20 min
absorption into the systemic circulation by the oral route [11]: not absorbed into the systemic circulation

Compound: SHU-9119
effect on food intake [9]: reverses this effect and can induce hyperphagia
